# Assay results: patent US6365573B1, “Regulation of neural enzymes” (Neuronz Ltd., priority 1996, dated 2002)
# Key:
# Type in all cases: in vivo, rat
# [1] = system: Choline acetyltransferase (ChAT); assay: ChAT immunopositive striatal neuron count after hypoxic-ischemic injury; conditions: adult Wistar rats, 3 ug GPE centrally via guide cannula 2 hours after hypoxia, striatum counted 3 days after injury, vs vehicle; FIG. 1
# Experimental: (§1) The objective of these studies was to determine the effects of administering GPE on expression of ChAT in the presence or absence of CNS injury. The experiment involved treating the rats with a control vehicle or GPE 2 hours after a focal CNS injury. […] The degree and length of hypoxia, the ambient temperature and humidity were defined to standardise the degree of damage. The neuronal death is restricted to the side of the carotid ligation and is primarily in the hippocarnpus, dentate gyrus, striatum and lateral cortex of the ligated hemisphere. There is no neuronal loss in the contralateral hemisphere.
# (§2) Specifically, nine pairs of adult wistar rats (280-320g) were prepared under halothane/O2 anaesthesia. The right side carotid artery was ligated. A guide cannula was placed on the dura 7.5 mm anterior from stereotaxic zero and 1.5 mm from midline on the right. The rats were allowed to recover for 1 hour and were then placed in an incubator with humidity 90+/−5% and temperature 31+/−0.5° C. for 1 hour before hypoxia. Oxygen concentration was reduced and maintained at 6+/−0.202% for 10 minutes. […]
# (§3) The size of the striatal region used for the count was measured using an image analyser. […] Data were analysed with paired t-test and presented as mean +/− sem.
# ChAT = ChAT immunoreactivity in striatum after quinolinic acid induced injury; conditions: adult male Wistar rats, 3 μg GPE into right lateral ventricle 2 hours after quinolinic acid, 3 days; no statistics; FIG. 6
# From the text: (§4) The objective of this study was to determine the effect of GPE administration on the expression of GAD, NOS and ChAT in the presence or absence of injury to the striatum induced by quinolinic acid. When injected into the striatum in experimental animals quinolinic acid produces lesions arising from the loss of striatopallidal and striatonigral GABAergic projection neurons, but spares the axons in the striatum (Science, 219, 316-318 [1983]). Rats were either treated with a control vehicle or GPE 2 hours after administration of quinolinic acid.
# (§5) A total of 14 adult male Wistar rats (280-310 g) were used in this investigation. Eight rats were anaesthetized using halothane/O2 anaesthesia. An injection of quinolinic acid ([…], Sigma, dissolved in 4M NaOH) was stereotaxically placed in the dorsal region of the right striatum 0.8 mm anterior to bregma, 2.5 mm lateral to the midline and 4.0 mm ventral to the pial surface. […]
# (§6) The size of the striatal region used for the count was measured using an image analyser (Mocha image analysis software). […] The data has not been analysed for statistical signigicance. Tissue from one of the GPE treated animals was unable to be counted.
# NOS = NOS immunoreactivity in striatum after quinolinic acid induced injury; conditions: adult male Wistar rats, 3 days, FIG. 5
# From the text: as §4, §5, §6
# GAD [2] = assay: GAD immunoreactivity in striatum after quinolinic acid induced injury; conditions: adult male Wistar rats, 3 μg GPE into right lateral ventricle 2 hours after quinolinic acid, 3 days, vs vehicle; no statistics; FIG. 4
# From the text: as §4, §5, §6
# GAD [3] = assay: GAD immunopositive striatal neuron count after hypoxic-ischemic injury; conditions: adult Wistar rats, 3 ug GPE 2 hours after hypoxia, striatum counted 3 days after injury, vs vehicle; *p<0.05; FIG. 2
# Experimental: The objective of these studies was to determine the effects of administering GPE on expression of GAD in the presence or absence of CNS injury. The experiment involved treating the rats with a control vehicle or GPE 2 hours after a focal CNS injury. […] The degree and length of hypoxia, the ambient temperature and humidity were defined to standardise the degree of damage. The neuronal death is restricted to the side of the carotid ligation and is primarily in the hippocampus, dentate gyrus, striatum and lateral cortex of the ligated hemisphere. There is no neuronal loss in the contralateral hemisphere. Specifically, nine pairs of adult wistar rats (280-320 g) were prepared under halothane/O2 anaesthesia. The right side carotid artery was ligated. A guide cannula was placed on the dura 7.5 mm anterior from stereotaxic zero and 1.5 mm from midline on the right. The rats were allowed to recover for 1 hour and were then placed in an incubator with humidity 90+/-5% and temperature 31+/-0.5° C. for 1 hour before hypoxia. Oxygen concentration was reduced and maintained at 6+/-0.202% for 10 minutes. […] The size of the striatal region used for the count was measured using an image analyser. […] Data were analysed with paired t-test and presented as mean +/- sem.
# [4] = system: neuronal nitric oxide synthetase (NOS); assay: NOS immunopositive striatal neuron count after hypoxic-ischemic injury; conditions: adult Wistar rats, 3 ug GPE 2 hours after hypoxia, striatum counted 3 days after injury, vs vehicle; #p=0.072, *p=0.008; FIG. 3
# Experimental: as §1, with “NOS” for “ChAT”, “hippocampus,” for “hippocarnpus,”
# as §2, with “(280-320 g)” for “(280-320g)”
# as §3
substance,measurement,setting,value
Gly-Pro-Glu [GPE],number of ChAT immunopositive neurons,[1],increased in both the right and left (uninjured) sides
same,levels of ChAT (ChAT-positive striatal neurons),ChAT,upregulated the levels of ChAT to above normal on the right (injured) side of the brain
same,"NOS enzyme levels relative to normal, left (non-injured) side","NOS; 3 μg GPE 2 hours after quinolinic acid, compared with normal controls",restoring the enzyme levels to normal
same,NOS enzyme expression (NOS-positive striatal neurons),"NOS; 3 μg GPE into right lateral ventricle 2 hours after quinolinic acid, vs vehicle, no statistics",upregulation of enzyme expression on both sides of the brain
same,GAD expression (GAD-positive striatal neurons),GAD [2],upregulation of GAD expression on both sides of the brain
same,number of GAD immunopositive neurons,GAD [3],increased in the right side
same,number of NOS immunopositive neurons,[4],increased in both the right and left (uninjured) sides
